# Laboratory results taken from ChEMBL document CHEMBL3585266, “New matrix metalloproteinase inhibitors based on γ-fluorinated α-aminocarboxylic and α-aminohydroxamic acids” (Bioorg Med Chem, 2015).
# pIC50: −log10 of the molar value.
# Experiments:
# [1] = target: 72 kDa type IV collagenase (Homo sapiens, UniProt P08253)
# Description: Inhibition of human active MMP2 using (7-methoxycoumarin-4-yl) acetyl pro-Leu-Gly-Leu-[3-(2,4-dinitrophenyl)-L-2,3-diamino-propionyl]-Ala-Arg-NH2 fluorogenic substrate assessed as fluorescent product release
# [2] = target: Matrix metalloproteinase-9 (Homo sapiens, UniProt P14780); experiment: Inhibition of human active MMP9 using (7-methoxycoumarin-4-yl) acetyl pro-Leu-Gly-Leu-[3-(2,4-dinitrophenyl)-L-2,3-diamino-propionyl]-Ala-Arg-NH2 fluorogenic substrate assessed as fluorescent product release
# Chain of Matrix metalloproteinase-9 (P14780 whole entry): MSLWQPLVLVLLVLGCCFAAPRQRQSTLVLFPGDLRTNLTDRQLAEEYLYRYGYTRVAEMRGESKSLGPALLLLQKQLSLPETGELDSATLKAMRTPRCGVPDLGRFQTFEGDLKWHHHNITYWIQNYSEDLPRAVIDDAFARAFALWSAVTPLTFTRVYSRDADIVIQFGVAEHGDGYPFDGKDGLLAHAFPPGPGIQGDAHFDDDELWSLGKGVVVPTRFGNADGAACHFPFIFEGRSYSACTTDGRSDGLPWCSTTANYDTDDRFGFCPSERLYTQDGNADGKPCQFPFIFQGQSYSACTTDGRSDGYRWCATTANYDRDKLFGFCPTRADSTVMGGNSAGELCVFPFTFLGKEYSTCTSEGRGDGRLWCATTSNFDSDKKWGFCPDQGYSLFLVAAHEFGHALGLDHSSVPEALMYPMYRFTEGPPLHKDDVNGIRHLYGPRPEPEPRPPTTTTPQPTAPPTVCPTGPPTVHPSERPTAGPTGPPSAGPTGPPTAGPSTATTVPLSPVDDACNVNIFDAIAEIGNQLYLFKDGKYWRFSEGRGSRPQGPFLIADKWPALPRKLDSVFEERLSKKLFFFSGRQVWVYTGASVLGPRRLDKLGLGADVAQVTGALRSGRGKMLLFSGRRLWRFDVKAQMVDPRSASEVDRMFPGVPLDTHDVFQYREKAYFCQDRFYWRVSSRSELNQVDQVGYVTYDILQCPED
# Chain of 72 kDa type IV collagenase (P08253 whole entry): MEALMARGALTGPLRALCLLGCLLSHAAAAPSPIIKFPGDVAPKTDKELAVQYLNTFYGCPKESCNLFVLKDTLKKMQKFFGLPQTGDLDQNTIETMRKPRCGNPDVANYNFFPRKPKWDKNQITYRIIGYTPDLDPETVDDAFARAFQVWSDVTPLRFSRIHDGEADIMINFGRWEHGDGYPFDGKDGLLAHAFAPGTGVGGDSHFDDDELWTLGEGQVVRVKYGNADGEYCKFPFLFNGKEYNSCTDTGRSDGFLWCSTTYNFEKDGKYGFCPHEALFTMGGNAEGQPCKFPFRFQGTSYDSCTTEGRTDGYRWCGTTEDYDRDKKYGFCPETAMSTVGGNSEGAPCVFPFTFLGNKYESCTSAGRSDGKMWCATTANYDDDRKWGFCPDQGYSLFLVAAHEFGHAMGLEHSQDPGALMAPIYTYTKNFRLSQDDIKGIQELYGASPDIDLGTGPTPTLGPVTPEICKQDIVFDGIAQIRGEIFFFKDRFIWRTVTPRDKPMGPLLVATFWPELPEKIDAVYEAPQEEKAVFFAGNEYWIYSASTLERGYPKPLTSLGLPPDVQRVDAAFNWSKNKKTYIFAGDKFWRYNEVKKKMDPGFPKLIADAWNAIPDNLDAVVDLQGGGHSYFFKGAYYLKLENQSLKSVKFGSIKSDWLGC
Compound,pIC50 [1],pIC50 [2]
CC[C@H](C(=O)O)N(Cc1cccnc1)S(=O)(=O)c1ccc(OC)cc1,4.99,5.06
CC[C@@H](C(=O)O)N(Cc1cccnc1)S(=O)(=O)c1ccc(OC)cc1,< 4.00,< 4.00
CC[C@H](C(=O)NO)N(Cc1cccnc1)S(=O)(=O)c1ccc(OC)cc1,8.70,8.34
CC[C@@H](C(=O)NO)N(Cc1cccnc1)S(=O)(=O)c1ccc(OC)cc1,5.85,6.15
COc1ccc(S(=O)(=O)N(Cc2cccnc2)[C@H](CCF)C(=O)O)cc1,< 4.00,< 4.00
COc1ccc(S(=O)(=O)N(Cc2cccnc2)[C@@H](CCF)C(=O)O)cc1,4.46,< 4.00
COc1ccc(S(=O)(=O)N(Cc2cccnc2)[C@H](CCF)C(=O)NO)cc1,8.19,7.91
C=CC[C@H](C(=O)O)N(Cc1cccnc1)S(=O)(=O)c1ccc(OC)cc1,5.68,5.77
C=CC[C@@H](C(=O)O)N(Cc1cccnc1)S(=O)(=O)c1ccc(OC)cc1,< 4.00,< 4.00
C=CC[C@H](C(=O)NO)N(Cc1cccnc1)S(=O)(=O)c1ccc(OC)cc1,8.41,9.27
C=CC[C@@H](C(=O)NO)N(Cc1cccnc1)S(=O)(=O)c1ccc(OC)cc1,8.20,8.19
C=C(F)C[C@H](C(=O)O)N(Cc1cccnc1)S(=O)(=O)c1ccc(OC)cc1,4.45,< 4.00
C=C(F)C[C@@H](C(=O)O)N(Cc1cccnc1)S(=O)(=O)c1ccc(OC)cc1,< 4.00,< 4.00
C=C(F)C[C@H](C(=O)NO)N(Cc1cccnc1)S(=O)(=O)c1ccc(OC)cc1,8.03,8.08
C=C(F)C[C@@H](C(=O)NO)N(Cc1cccnc1)S(=O)(=O)c1ccc(OC)cc1,8.14,8.31
